Reference: patent publication US4616087A, “2,5-bis alkyl sulfonyl and 2,5-bis alkyl thio substituted-pyridines” (The Dow Chemical Company, priority 1982, dated 1986)

These molecules were tested on rhinovirus type 1A (RV-1A), rhinovirus type 2 (RV-2) or Coxsackie A21 virus (Cox A21) (assay: Tissue Culture testing, antiviral activity (virus not specified)). Conditions: HeLa cells; qualitative.
Format: cell-based
Method: Monolayered HeLa cells in 16 millimeter (mm) tissue culture dishes were treated with 1 ml of culture medium (Eagles medium supplemented with fetal calf serum) containing subject compound at an appropriate concentration or containing no compound at all. Culture media such as those described herein are more fully described in standard texts, as for example, Kuchler's Biochemical Methods in Cell Culture and Virology, Dowden, Hutchinson and Ross, Inc., Stroudsberg, PA (1977). Following treatment, cells were challenged with 0.05 ml of rhinovirus type 1A (RV-1A), rhinovirus type 2 (RV-2) or Coxsackie A21 virus (Cox A21) in culture medium. Some of the compounds were also tested against rhinovirus type 5 (RV-5), rhinovirus type 8 (RV-8) or rhinovirus type 64 (RV-64). Cell controls received no viruses.

Structure (SMILES)	antiviral activity in the Tissue Culture testing
CCS(=O)(=O)c1ccc(Oc2ccc(Oc3ccccc3)cc2)nc1 [5-(ethylsulfonyl)-2-(4-phenoxyphenoxy)pyridine]	exhibiting antiviral activity
CS(=O)(=O)c1ccc(Oc2ccc(Cl)c(Cl)c2)nc1 [2-(3,4-dichlorophenoxy)-5-(methylsulfonyl)pyridine]	exhibiting antiviral activity
O=S(=O)(Cc1ccccc1)c1ccc(Oc2ccc(Br)cc2)nc1 [2-(4-bromophenoxy)-5-((phenylmethyl)sulfonyl)pyridine]	exhibiting antiviral activity
CC(=O)c1ccc(Oc2ccc(S(=O)(=O)C(C)C)cn2)cc1 [1-(4-((5-((1-methylethyl)sulfonyl)-2-pyridinyl)oxy)phenyl)ethanone]	exhibiting antiviral activity
O=S(=O)(c1ccc(Oc2ccc(Cl)c(Cl)c2)nc1)C1CCCCC1 [2-(3,4-dichlorophenoxy)-5-(cyclohexylsulfonyl)pyridine]	exhibiting antiviral activity
CCS(=O)(=O)c1cccnc1Oc1ccc(Cl)c(Cl)c1 [2-(3,4-dichlorophenoxy)-3-(ethylsulfonyl)pyridine]	exhibiting antiviral activity
CS(=O)(=O)c1ccc(Oc2cccc(Br)c2)nc1 [2-(3-bromophenoxy)-5-(methylsulfonyl)pyridine]	exhibiting antiviral activity
O=C(c1ccccc1)c1ccc(Oc2ccc(S(=O)(=O)C3CCCCC3)cn2)cc1 [(4-((5-(cyclohexylsulfonyl)-2-pyridinyl)oxy)phenyl)phenylmethanone]	exhibiting antiviral activity
O=S(=O)(Cc1ccccc1)c1ccc(Oc2ccc(Cl)c(Cl)c2)nc1 [2-(3,4-dichlorophenoxy)-5-((phenylmethyl)sulfonyl)pyridine]	exhibiting antiviral activity
CS(=O)(=O)c1ccc(Oc2ccc(C(=O)c3ccccc3)cc2)nc1 [(4-((5-(methylsulfonyl)-2-pyridinyl)oxy)phenyl)phenylmethanone]	exhibiting antiviral activity
CC(C)(C)c1ccc(Oc2ccc(S(C)(=O)=O)cn2)cc1 [2-(4-(1,1-dimethylethyl)phenoxy)-5-(methylsulfonyl)pyridine]	exhibiting antiviral activity
CS(=O)(=O)c1ccc(Oc2ccc(Oc3ccccc3)cc2)nc1 [5-(methylsulfonyl)-2-(4-phenoxyphenoxy)pyridine]	exhibiting antiviral activity
CS(=O)(=O)c1ccc(Oc2ccc(Cl)cc2)nc1 [2-(4-chlorophenoxy)-5-(methylsulfonyl)pyridine]	exhibiting antiviral activity
CCS(=O)(=O)c1ccc(Oc2cc(Cl)c(Cl)cc2Cl)nc1 [5-(ethylsulfonyl)-2-(2,4,5-trichlorophenoxy)pyridine]	exhibiting antiviral activity
CC(=O)c1ccc(Oc2ccc(S(C)(=O)=O)cn2)cc1 [1-(4-((5-(methylsulfonyl)-2-pyridinyl)oxy)phenyl)ethanone]	exhibiting antiviral activity
CS(=O)(=O)c1ccc(Oc2ccc(Br)cc2)nc1 [2-(4-bromophenoxy)-5-(methylsulfonyl)pyridine]	exhibiting antiviral activity
CS(=O)(=O)c1cccnc1Oc1ccc(C(=O)c2ccccc2)cc1 [(4-((3-(methylsulfonyl)-2-pyridinyl)oxy)phenyl)phenylmethanone]	exhibiting antiviral activity
CCCCCCS(=O)(=O)c1ccc(Oc2ccc(C(=O)c3ccccc3)cc2)nc1 [(4-((5-(n-hexylsulfonyl)-2-pyridinyl)oxy)phenyl)phenylmethanone]	exhibiting antiviral activity
O=S(=O)(c1ccc(Oc2ccc(Br)cc2)nc1)C1CCCCC1 [2-(4-bromophenoxy)-5-(cyclohexylsulfonyl)pyridine]	exhibiting antiviral activity
CC(C)S(=O)(=O)c1ccc(Oc2ccc(Br)cc2)nc1 [2-(4-bromophenoxy)-5-((1-methylethyl)sulfonyl)pyridine]	exhibiting antiviral activity
CCCCCCS(=O)(=O)c1ccc(Oc2ccc(Cl)c(Cl)c2)nc1 [2-(3,4-dichlorophenoxy)-5-(n-hexylsulfonyl)pyridine]	exhibiting antiviral activity
CC(C)S(=O)(=O)c1ccc(Oc2ccc(C(=O)c3ccccc3)cc2)nc1 [(4-((5-((1-methylethyl)sulfonyl)-2-pyridinyl)oxy)phenyl)phenylmethanone]	exhibiting antiviral activity
CSc1ccc(Oc2ccc(S(C)(=O)=O)cn2)cc1 [2-(4-(methylthio)phenoxy)-5-(methylsulfonyl)pyridine]	exhibiting antiviral activity
CCS(=O)(=O)c1ccc(Oc2ccc(C(=O)c3ccccc3)cc2)nc1 [(4-((5-(ethylsulfonyl)-2-pyidinyl)oxy)phenyl)phenylmethanone]	exhibiting antiviral activity
CS(=O)(=O)c1ccc(Oc2ccc(C#N)cc2)nc1 [4-((5-(methylsulfonyl)-2-pyridinyl)oxy)benzonitrile]	exhibiting antiviral activity
CCS(=O)(=O)c1ccc(Oc2ccc(Cl)c(Cl)c2)nc1 [2-(3,4-dichlorophenoxy)-5-(ethylsulfonyl)pyridine]	exhibiting antiviral activity
O=S(=O)(c1ccccc1)c1ccc(Oc2ccc(Br)cc2)nc1 [2-(4-bromophenoxy)-5-(phenylsulfonyl)pyridine]	exhibiting antiviral activity
CCS(=O)(=O)c1ccc(Oc2ccc(Cl)cc2)nc1 [2-(4-chlorophenoxy)-5-(ethylsulfonyl)pyridine]	exhibiting antiviral activity
CS(=O)(=O)c1ccc(Oc2cccc(C#N)c2)nc1 [3-((5-(methylsulfonyl)-2-pyridinyl)oxy)benzonitrile]	exhibiting antiviral activity
